# Test results from patent US9492470B2, “Use of HMGA-targeted phosphorothioate DNA aptamers to suppress carcinogenic activity and increase sensitivity to chemotherapy agents in human cancer cells” (MIAMI UNIVERSITY, priority 2012, dated 2016).
# Like-named read-outs stand apart in the source and are kept apart here. In the oligonucleotide strings, read from the 5' end, every base follows the letter of its sugar. An asterisk marks phosphorothioate; unmarked linkages are phosphodiester. Other units and linkages are bracketed, terminal groups are in braces. A string of capitals states the bases alone. d = 2'-deoxy (DNA)
# How the values were obtained:
# [1] = tested on: AsPC-1 cells; details: for cell death: 96 h, compared to non-transfected cells; for cells dead compared to UT: AsPC-1, 0.1 ug sDNA, versus untransfected (UT) cells; for Fold change in numbers of viable cells between TC and sDNA transfected cells (in parentheses) / Fold change in numbers of viable cells between UT and transfected cells: 96 h after transfection
# Method: AsPC-1 cells were grown in Roswell Park Memorial Institute medium supplemented with 10% FBS, and 1% penicillin-streptomycin.
# Transfections using sDNA at concentrations of 0.1 and 0.25 μg per well were conducted with 5×10^4 and 1×10^5 Miapaca-2 and AsPC-1 cells, respectively, in 24-well plates and all data were collected in quadruplicate. Miapaca-2 and AsPC-1 cells were transfected with sDNA using Lipofectamine 2000 (Invitrogen,™ Life Technologies Corporation, Carlsbad, Calif.) according to the manufacturer's protocol.
# Briefly, AsPC-1 cells grown in 10% FBS containing RPIM medium were trypsinized using a trypsin-EDTA solution commercially available from the Sigma-Aldrich, and used to seed fresh media in a 24-well plate with 10^5 cells per well.
# After 48 hours, the cells were transfected with the selected sDNA using Lipofectamine 2000 (Invitrogen,™ Life Technologies Corporation, Carlsbad, Calif.) according to the manufacturer's protocol. […] The cells were then fixed with 4% paraformaldehyde in PBS for 20 minutes and stained in 0.1% crystal violet stain (Sigma-Aldrich) for 30 minutes. The cells were washed under running tap water, air dried, and extracted with 0.2% Triton™ X-100 for 30 minutes. […] The absorbance of the Triton X-100 was measured at 570 nm using a HTS microplate reader. All results were analyzed for statistical significance using a student's unpaired t-test.
# [2] = tested on: Miapaca-2 cells; test: Cell growth with gemcitabine treatment after sDNA transfection, Miapaca-2; type: cell-based, Human; details: for Fold change in numbers of viable cells normalized relative to TC: 96 hours
# [3] = tested on: AsPC-1 cells; test: Cell growth with gemcitabine treatment after sDNA transfection, AsPC-1; type: cell-based, Human; details: for Fold change in numbers of viable cells normalized relative to TC: AsPC-1, 0.1 ug sDNA, 96 hours
# Method: (§1) Cells were fixed after 96 hours and numbers of viable cells counted by measuring the absorbance at 570 nm.
# (§2) Cells were transfected with 0.1 μg of TC-sDNA, Mix-sDNA, CG-sDNA, and AT-sDNA.
# [4] = tested on: AsPC-1 cells; test: as above; type: cell-based, Human; details: for cells died: AsPC-1, 0.25 μg AT-sDNA
# [5] = tested on: HMGA1 expression levels in AsPC-1 cells; test: Western blot of HMGA1 expression levels in AsPC-1 nuclear extracts; type: cell-based, Human; details: AsPC-1, 0.5 μg sDNA in six well plates, 48 hours
# Method: Cytoplasmic and nuclear protein extracts were prepared from pancreatic cancer cells using NE-PER extraction kit (Thermo Scientific, Rockford, Ill.). Protein concentrations were determined using a bicinchoninic acid assay with bovine serum albumin as a standard. Nuclear proteins that contained 25 or 15 μg total protein were separated by SDS-PAGE with a 4%-20% Criterion gradient gel (Bio-Rad Laboratories, Inc., Hercules, Calif.). The proteins were transferred to immuno-blot PVDF membrane (0.2 μm) (Bio-Rad Laboratories, Inc., Hercules, Calif.) and blocked in 5% dry milk in PBS supplemented with 0.2% Tween 20 (PBST). The PVDF membranes were then probed with 1:1000 dilution of rabbit anti-HMGA1 antibody (Santa Cruz Biotechnology Inc, Santa Cruz, Calif.) and 1:100 dilution of rabbit anti-HMGA2 antibody (Abcam plc, Cambridge, Mass.), in 3% BSA in PBST at 4° C. overnight. After three washes with PBST, the membrane was blotted with secondary antibody, ant-rabbit IgG-HRP (cell signaling) 1:5000 dilution in 1% dry milk in PBST at room temperature for 1 hour. An enhanced chemiluminescence detection (ECL, GE Healthcare Life Sciences, Piscataway, N.J.) system was used to detect target proteins. To ensure equal loading of the proteins between groups, membranes were re-probed with anti-TATA binding protein antibody (Abcam plc, Cambridge, Mass.). […] The control was nuclear extract from untreated cells. Triplicates of each sample were run on the gel and analyzed with the Alpha Imager. The relative HMGA1 densities were obtained by dividing HMGA 1 density by TBP density. […] TATA binding protein (TBP) was used as a loading control. […] HMGA1 expression levels were examined after transfection with CG-sDNA or AT-sDNA to determine if the transfection procedure affected HMGA1 expression levels. The AT-sDNA used for transfection contained an 18 adenine/thymine stretch enabling HMGA1 to bind the DNA with all three AT-hooks. As a negative control, a non-HMGA1-targeted sDNA containing an equal length of DNA but with no AT-stretches, i.e. CG-sDNA, was used. […]
# [6] = tested on: Miapaca-2 cells; test: Cell viability (crystal violet) after sDNA transfection, Miapaca-2; type: cell-based, Human; details: for cells dead compared to TC: versus transfection control (TC) cells; for cells dead compared to UT: Miapaca-2, 0.1 ug sDNA, versus untransfected (UT) cells; for Fold change in numbers of viable cells between TC and sDNA transfected cells (in parentheses) / Fold change in numbers of viable cells between UT and transfected cells: 96 h after transfection
# Method: The absorbance was measured at 570 nm in quadruplicate. All data from control cells were combined and averaged.
# [7] = tested on: Miapaca-2 cells; test: Cell growth with gemcitabine treatment after sDNA transfection, Miapaca-2; type: cell-based, Human; details: 96 hours; for Fold change in numbers of viable cells normalized relative to TC: Miapaca-2, 0.1 ug sDNA
# Method: as §1, §2
substance,measurement,setting,value
"AT-sDNA: AT-rich phosphorothioate DNA, 5′-G*G*G*A*A*A*A*A*A*T*T*T*T*T*T*A*A*A*A*A*A*C*C*C-3′ (SEQ ID NO: 1), sulfur substitution at every position (DNA dG*dG*dG*dA*dA*dA*dA*dA*dA*dT*dT*dT*dT*dT*dT*dA*dA*dA*dA*dA*dA*dC*dC*dC)",cell death,"[1]; AsPC-1, 0.1 μg sDNA per well",33%
same,cells dead compared to TC,"[1]; AsPC-1, 0.1 μg sDNA, 48 hrs, versus transfection control (TC) cells",22.3%
same,cells dead compared to UT,[1]; 48 hrs,42.0%
same,Fold change in numbers of viable cells between TC and sDNA transfected cells (in parentheses),"[1]; AsPC-1, 0.1 μg sDNA",−1.44 fold
same,Fold change in numbers of viable cells between UT and transfected cells,"[1]; AsPC-1, 0.1 μg sDNA",−1.57 fold
same,cells dead compared to TC,"[1]; AsPC-1, 0.1 μg sDNA, 96 hrs, versus transfection control (TC) cells",30.7%
same,cells dead compared to UT,[1]; 96 hrs,36.1%
same,cell death,"[1]; AsPC-1, 0.25 μg sDNA per well",44%
same,Fold change in numbers of viable cells between TC and sDNA transfected cells (in parentheses),"[1]; AsPC-1, 0.25 μg sDNA",−1.65 fold
same,Fold change in numbers of viable cells between UT and transfected cells,"[1]; AsPC-1, 0.25 μg sDNA",−1.79 fold
same,cell death compared to TC,"[1]; AsPC-1, 0.25 μg sDNA, 96 hours, versus TC cells",39.4%
same,cell death,"[1]; AsPC-1, 1.0 μg sDNA per well",57%
same,cells dead compared to TC,"[1]; AsPC-1, 1.0 μg sDNA, 96 hours, versus TC cells",53.6%
same,Fold change in numbers of viable cells normalized relative to TC,"[2]; Miapaca-2, 0.1 ug sDNA, Gemcitabine 1 nM",−1.38 fold
same,Fold change in numbers of viable cells normalized relative to TC,"[2]; Miapaca-2, 0.25 ug sDNA, Gemcitabine 0 nM",−3.68 fold
same,Fold change in numbers of viable cells normalized relative to TC,"[2]; Miapaca-2, 0.25 ug sDNA, Gemcitabine 1 nM",−4.45 fold
same,Fold change in numbers of viable cells normalized relative to TC,"[2]; Miapaca-2, 0.25 ug sDNA, Gemcitabine 10 nM",−4.14 fold
same,Fold change in numbers of viable cells normalized relative to TC,"[2]; Miapaca-2, 0.25 ug sDNA, Gemcitabine 30 nM",−8.32 fold
same,Fold change in numbers of viable cells normalized relative to TC,"[2]; Miapaca-2, 0.25 ug sDNA, Gemcitabine 100 nM",−11.81 fold
same,Fold change in numbers of viable cells normalized relative to TC,"[2]; Miapaca-2, 0.25 ug sDNA, Gemcitabine 1000 nM",−11.31 fold
same,overall drop in the number of viable cells,"[2]; Miapaca-2, either 0.1 or 0.25 μg AT-sDNA, 100 nm or greater gemcitabine",~10 fold
same,cells dying,"[3]; AsPC-1, 0.1 μg AT-sDNA, 100 nM gemcitabine",29.4%
same,Fold change in numbers of viable cells normalized relative to TC,[3]; Gemcitabine 0 nM,−1.44 fold
same,Fold change in numbers of viable cells normalized relative to TC,[3]; Gemcitabine 1 nM,−1.58 fold
same,Fold change in numbers of viable cells normalized relative to TC,[3]; Gemcitabine 10 nM,−1.71 fold
same,Fold change in numbers of viable cells normalized relative to TC,[3]; Gemcitabine 30 nM,−1.86 fold
same,Fold change in numbers of viable cells normalized relative to TC,[3]; Gemcitabine 100 nM,−2.04 fold
same,Fold change in numbers of viable cells normalized relative to TC,[3]; Gemcitabine 1000 nM,−2.33 fold
same,cell death,"[4]; AsPC-1, 0.025 μg AT-sDNA, 1000 nM gemcitabine",31%
same,cells dying,"[4]; AsPC-1, 0.1 μg AT-sDNA, 1 nM gemcitabine",9.0%
same,cells died,[4]; 1 nM gemcitabine,14.9%
same,cells died,[4]; 100 nM gemcitabine,41.7%
same,overall drop in the number of viable cells after gemcitabine treatment,"[4]; AsPC-1, AT-sDNA transfection",2-4 fold
same,change in HMGA1 expression levels after sDNA transfection,[5],no changes
same,cells dead compared to TC,"[6]; Miapaca-2, 0.1 μg sDNA, 48 hrs",17.2%
same,cells dead compared to UT,[6]; 48 hrs,48.4%
same,Fold change in numbers of viable cells between TC and sDNA transfected cells (in parentheses),"[6]; Miapaca-2, 0.1 μg sDNA",−1.52 fold
same,Fold change in numbers of viable cells between UT and transfected cells,"[6]; Miapaca-2, 0.1 μg sDNA",−2.36 fold
same,cells dead compared to TC,"[6]; Miapaca-2, 0.1 μg sDNA, 96 hrs",34.1%
same,cells dead compared to UT,[6]; 96 hrs,58.9%
same,Fold change in numbers of viable cells between TC and sDNA transfected cells (in parentheses),"[6]; Miapaca-2, 0.25 μg sDNA",−3.68 fold
same,Fold change in numbers of viable cells between UT and transfected cells,"[6]; Miapaca-2, 0.25 μg sDNA",−6.07 fold
same,cells dead / change in cell viability,"[7]; Miapaca-2, 0.1 μg sDNA, 1 nM gemcitabine",33.6%
same,cells surviving,"[7]; Miapaca-2, 0.1 μg sDNA, 10 nM gemcitabine, normalized to 0 nM gemcitabine",51.2%
same,Fold change in numbers of viable cells normalized relative to TC,[7]; Gemcitabine 0 nM,−1.52 fold
same,Fold change in numbers of viable cells normalized relative to TC,[7]; Gemcitabine 10 nM,−1.79 fold
same,Fold change in numbers of viable cells normalized relative to TC,[7]; Gemcitabine 30 nM,−7.07 fold
same,Fold change in numbers of viable cells normalized relative to TC,[7]; Gemcitabine 100 nM,−9.58 fold
same,Fold change in numbers of viable cells normalized relative to TC,[7]; Gemcitabine 1000 nM,−6.82 fold
